The values below come from US11617804B2, “Hyaluronic acid-based nanoparticles as biosensors for imaging-guided surgery and drug delivery vehicles and methods associated therewith” (Wake Forest University, priority 2014, dated 2023).

The subject of one experiment is MDA-MB-231 tumors. Briefly: In vivo testing, MDA-MB-231-iRFP xenograft: imaging, image-guided tumor removal, relative biodistribution. On the set-up: species or system female nude mice. As to conditions: I.V. injection of 10 nmol ICG (free or fHNP), 24 hours. On the procedure:
Twelve to fourteen week old female nude mice (Jackson Labs) were injected subcutaneously with 2×10^6) MDA-MB-231 cells in 50/50 media/matrigel. MDA-MB-231 cells were transfected with NIR fluorescent protein (iRFP). When the tumors reached 500-1000 mm^3, 10 nmol ICG or fHNP (10 wt % PBA was the hydrophobic ligand in this case) was injected into a tail vein. After 24 hours the mice were euthanized and imaged whole using a LI-COR Pearl Impulse system, which has a “700 nm” channel that can detect iRFP-labeled cell and an “800 nm” channel that can detect ICG or Cy7.5. Mice then underwent image-guided tumor removal with the fluorescence image-guided surgical system method. First, skin was removed to expose the breast tumor xenograft. […] Mice were then re-imaged on the LI-COR system to compare area identified as tumor by the fluorescence image-guided surgical system with iRFP labeled tumors. This was followed by necropsy, further image acquisition for the overall estimation of relative ICG biodistribution, and preparation of tissues for histology.

A further experiment relates to ectopic 4T1 breast tumor. Briefly: ICG detection in tumor with the fluorescence image-guided surgical system. It counts as in vivo, mouse. As to conditions: 0.357 mg/kg ICG via tail vein, 24 hours, laser excitation directed at the tumor. On the procedure:
In this experiment, 0.357 mg/kg ICG was systemically administered via a tail vein. After 24 hours, the mouse was euthanized and tumor fluorescence enhancement was assessed by using the fluorescence image-guided surgical system method. When the laser excitation source of fluorescence image-guided surgical system method is directed off the tumor (FIG. 9A,B), no fluorescence enhancement of the tumor is seen. […] This example uses a breast tumor model.

`CC1(C)C(/C=C/C=C/C=C/C=C2\N(CCCCS(=O)(=O)O)c3ccc4ccccc4c3C2(C)C)=[N+](CCCCS(=O)(=O)[O-])c2ccc3ccccc3c21` [ICG, Indocyanine green]: in the experiment with MDA-MB-231 tumors, the Tumor signal enhancement entry is listed as “tumor signal enhancement”. In the experiment on ectopic 4T1 breast tumor, the Tumor fluorescence enhancement result is given as “strong fluorescence signal”.
